Results taken from US20180296523A1, “USE OF POLYMETHOXYLATED FLAVONES TO AMELIORATE CIRCADIAN RHYTHM DISORDERS” (THE BOARD OF REGENTS OF THE UNIVERSITY OF TEXAS SY, priority 2017, published 2018).
Entries after “also recorded” stand apart in the source; their conditions may differ.

Columns and labels:
[1] = tested on: Clock^Δ19/+ PER2::Luc reporter cells; test: High-throughput chemical screen, PER2::Luc reporter rhythm; type: cell-based, mouse; details: for PER2::Luc reporter rhythm / circadian amplitude: Clock^Δ19/+ cells, forskolin pre-stimulated
Description: Specifically, the chemical screen for circadian clock modulators was conducted at the Chemical Genomics Core facility at the University of Texas Health Science Center at Houston (UTHSC-H). The in-house chemical library screened consisted of compounds from the National Institutes of Health (NIH) Clinical Collection, National Cancer Institute collection, and Microsource Spectrum Collection. Screening was conducted largely on the basis of the protocol previously described (Chen et al., 2012). […] Upon confluency, cells were incubated with 5 μM forskolin for 1-2 hr, followed by the addition of chemical compounds to the plates with robotic arms (Beckman), and then subjected to continuous monitoring over several days in a temperature-controlled EnVision microplate reader (Perkin Elmer). Data analysis was carried out by using the MultiCycle software (Actimetrics) for measurement of period, phase, and amplitude. The chemical screen for circadian clock modulators was conducted at the Chemical Genomics Core facility at the UTHSC-H. The in-house chemical library screened consists of compounds from NIH Clinical Collection, NCI collection and Microsource Spectrum Collection. The screening was conducted largely based on the protocol previously described (Chen et al., 2012). […] Cells were then incubated with 5 μM forskolin for 1-2 h followed by the addition of chemical compounds to the plates with robotic arms (Beckman), and then subjected to continuous monitoring over several days in a temperature-controlled EnVision microplate reader (Perkin Elmer). Data analysis was carried out by using the MultiCycle software (Actimetrics) for measurement of period, phase, and amplitude. […] Tissue explant experiments were conducted as described previously (Chen et al., 2012).

GAL4 DBD-RORα LBD = target: T1, GAL4 DBD-RORα LBD (Mus musculus, UniProt P51448); test: Mammalian one-hybrid reporter assay in HEK293T cells, GAL4-RORα; type: cell-based; details: ligand interaction reduces transcriptional activity
T1 construct: mouse RORα-LBD (aa 261-523); expressed in transfected cells; host or cells: HEK293T
T1 sequence (P51448 261-523): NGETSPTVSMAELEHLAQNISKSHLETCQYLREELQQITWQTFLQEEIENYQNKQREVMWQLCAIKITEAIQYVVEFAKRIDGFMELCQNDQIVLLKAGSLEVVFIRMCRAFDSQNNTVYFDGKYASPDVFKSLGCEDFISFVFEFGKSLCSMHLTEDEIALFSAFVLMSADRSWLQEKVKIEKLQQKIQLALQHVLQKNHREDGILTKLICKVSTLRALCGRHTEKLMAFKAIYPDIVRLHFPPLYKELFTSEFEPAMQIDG
From the text: (§1) Plasmids containing the retinoic acid-related orphan receptor response element (RORE) from mouse Bmal1 promoter, pcDNA3.1B-G4DBD-RORαLBD and pcDNA3.1BG4DBD-RORγLBD were constructed in our lab. Specifically, the 1960 bp sequences (−1830/+130) of the mouse Bmal1 promoter harboring either WT ([…] (SEQ ID NO:1) and […] (SEQ ID NO:2)) or mutant ([…] (SEQ ID NO:3)) RORE were PCR amplified from mouse genomic DNA and cloned into pGL3-promoter luciferase vector. For expression of RORα or RORγ-GAL4 protein, mouse RORα-LBD (aa 261-523) or RORγ-LBD (aa 250-516) were PCR amplified from mouse genomic DNA and cloned into a GAL4-DBD-containing vector, pcDNA3.1B.
(§2) For mammalian one-hybrid assays, HEK293T cells were cotransfected with pcDNA3.1B-G4DBD-RORα/γLBD, pGL4.31 and TK promoter Renilla luciferase construct (tK.pRL). To investigate the regulation of the Bmal1 reporter, Hepa1-6 cells were cotransfected with Bmal1-WT or mutant RORE reporter plasmids, RORα, RORγ or Rev-erbα expression construct along with tK.pRL. Mouse and human siRNA targeting RORα and RORγ were purchased from Santa Cruz. Transfection was performed by Lipfectamine 2000 reagent (Invitrogen) Twenty-four hours after transfection, the cells were treated with vehicle or NOB. Lysates were collected 24 h after treatment, and firefly and Renilla luciferase activities were measured by using a Dual-Luciferase Reporter System (Promega).
(§3) For radio-ligand receptor binding assays, previously described protocols with minor modifications (Kumar et al., 2010; Wang et al., 2010b) were adopted.

RORγ-LBD = target: T2, RORγ-LBD (Homo sapiens, UniProt P51449); test: Radioligand receptor binding assay with 25-[3H]-OHC, RORγ-LBD; details: in the presence of 4.5 nM 25-[3H]-OHC
T2 sequence (P51449 269-508 limits assumed): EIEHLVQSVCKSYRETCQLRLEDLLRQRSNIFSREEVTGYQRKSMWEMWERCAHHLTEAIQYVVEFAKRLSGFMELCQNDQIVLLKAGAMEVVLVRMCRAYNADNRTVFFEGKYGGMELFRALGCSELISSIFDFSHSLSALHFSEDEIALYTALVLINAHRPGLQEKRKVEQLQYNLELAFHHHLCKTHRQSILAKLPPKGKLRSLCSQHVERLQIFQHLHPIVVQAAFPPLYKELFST
Description: Ligand binding was determined by filter binding assays to calculate the Kd value. […] Ki was determined using the Cheng-Prusoff equation.

[2] = tested on: PER2::LucSV reporter fibroblast cells; test: Dose response validation of reporter rhythm in PER2::LucSV cells; type: cell-based, mouse
Description: The chemical screen for circadian clock modulators was conducted at the Chemical Genomics Core facility at the UTHSC-H. The in-house chemical library screened consists of compounds from NIH Clinical Collection, NCI collection and Microsource Spectrum Collection. The screening was conducted largely based on the protocol previously described (Chen et al., 2012). […] Cells were then incubated with 5 μM forskolin for 1-2 h followed by the addition of chemical compounds to the plates with robotic arms (Beckman), and then subjected to continuous monitoring over several days in a temperature-controlled EnVision microplate reader (Perkin Elmer). Data analysis was carried out by using the MultiCycle software (Actimetrics) for measurement of period, phase, and amplitude. […] Tissue explant experiments were conducted as described previously (Chen et al., 2012).

GAL4 DBD-RORγ LBD = target: T3, GAL4 DBD-RORγ LBD (Mus musculus, UniProt P51450); test: Mammalian one-hybrid reporter assay in HEK293T cells, GAL4-RORγ; type: cell-based; details: ligand interaction reduces transcriptional activity
T3 construct: RORγ-LBD (aa 250-516); expressed in transfected cells; host or cells: HEK293T
T3 sequence (P51450 250-516): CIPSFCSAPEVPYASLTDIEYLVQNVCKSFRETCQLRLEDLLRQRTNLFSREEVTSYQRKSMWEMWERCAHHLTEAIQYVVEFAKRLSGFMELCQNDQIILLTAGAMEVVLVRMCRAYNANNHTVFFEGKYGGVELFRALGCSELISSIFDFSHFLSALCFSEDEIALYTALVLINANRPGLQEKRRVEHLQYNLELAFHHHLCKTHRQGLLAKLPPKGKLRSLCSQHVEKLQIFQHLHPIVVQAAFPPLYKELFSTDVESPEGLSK
From the text: as §1, §2, §3

Row | SMILES | PER2::Luc reporter rhythm / circadian amplitude [1] | reporter luminescence ([1]; PER2::LUC Clock^Δ19/+ reporter cells) | activity on GAL4-RORα chimeric receptor (GAL4 DBD-RORα LBD) | competitive binding to RORγ-LBD (RORγ-LBD) | reporter luminescence ([2]; PER2::LucSV reporter cells) | activity on GAL4-RORγ chimeric receptor (GAL4 DBD-RORγ LBD) | PER2::Luc reporter rhythm / circadian amplitude ([1]; listed as Nobiletin) | amplitude of PER2::LucSV reporter rhythm [2] | period of PER2::LucSV reporter rhythm [2] | EC50 ([2]; Mus musculus, Fibroblast, PER2::LucSV reporter rhythm, read-out: estimated half maximal effective concentration) [µM]
1 | C[C@@H]1O[C@@H](O[C@H]2[C@H](Oc3cc(O)c4c(c3)O[C@H](c3ccc(O)cc3)CC4=O)O[C@H](CO)[C@@H](O)[C@@H]2O)[C@H](O)[C@H](O)[C@H]1O [naringin, reference compound] | failed to enhance cellular circadian rhythms | did not enhance the reporter luminescence | no activities | markedly diminished binding | did not enhance the reporter luminescence | no activities |  |  |  | 
2 | COc1ccc(-c2cc(=O)c3c(OC)c(OC)c(OC)c(OC)c3o2)cc1OC [nobiletin] | enhance the reporter rhythm |  | robust activities | direct binding; also recorded: robust competitive binding |  | robust activities | significantly enhance circadian amplitude | robustly enhanced the amplitude | lengthened the period in a dose-dependent manner | < 5
